Calls of active or inactive are those of the source. The rule behind the calls is not given here.
Experiments:
Leukemia cell = test: Cytotoxicity against mouse leukemia cells; type: functional, cell-based
Human alphaherpesvirus 3 = test: Antimicrobial activity against Varicella-zoster virus; type: functional, organism-based
[1] = Selectivity index, ratio of CC50 for human ORL8 cells to EC50 for Hepatitis C virus infected in […]; type: toxicity, cell-based; details: read-out: Ratio CC50/EC50
[2] = tested on: Vesicular stomatitis virus; test: Antimicrobial activity against Vesicular stomatitis virus; type: functional, organism-based
Hepatitis C virus [3] = test: Antiviral activity against Hepatitis C virus infected in […] after 72 hrs by luciferase reporter gene assay; type: functional, organism-based, Hepacivirus hominis; details: OR6, 72 h
Human betaherpesvirus 5 = test: Antimicrobial activity against Human cytomegalovirus; type: functional, organism-based
[4] = Cytotoxicity against human ORL8 cells after 72 hrs by WST-1 assay; type: cell-based
Herpesviridae sp. = test: Antimicrobial activity against Herpes simplex virus; type: functional, organism-based
Cancer cell lines = test: Cytotoxicity against human cervical cancer cells; type: functional, cell-based
Hepatitis C virus [5] = test: Antiviral activity against Hepatitis C virus infected in mouse HB-1 cells after 24 hrs by ribonuclease replicon assay; type: functional, organism-based, Hepacivirus hominis; details: HB1, 24 h

| Structure (SMILES) | inhibition (Leukemia cell) | Activity (Human alphaherpesvirus 3) | selectivity ratio [1] | Activity [2] | EC50 (Hepatitis C virus [3]) [µM] | Activity (Human betaherpesvirus 5) | CC50 at 72 h [4] [µM] | Activity (Herpesviridae sp.) | inhibition (Cancer cell lines) | EC50 (Hepatitis C virus [5]) [µM] |
| --- | --- | --- | --- | --- | --- | --- | --- | --- | --- | --- |
| Nc1ncnc2c1ncn2[C@@H]1O[C@](F)(CO)[C@H](F)[C@H]1O | inactive | inactive | > 1 | inactive | > 200 | inactive | > 200 | inactive | inactive | – |
| Nc1ncnc2c1ncn2[C@@H]1O[C@@](F)(CO)[C@@H](F)[C@@H]1O | inactive | inactive | > 1 | inactive | > 200 | inactive | > 200 | inactive | inactive | – |
| NC(=O)c1ncn([C@@H]2O[C@H](CO)[C@@H](O)[C@H]2O)n1 [RIBAVIRIN] | – | – | 18 | – | 5.6 | – | 100 | – | – | – |
| Nc1ncnc2c1ncn2[C@@H]1O[C@@](F)(CO)[C@H](F)[C@H]1O | inactive | inactive | > 1 | inactive | > 100 | inactive | > 100 | inactive | inactive | – |
| Nc1ncnc2c1ncn2[C@@H]1O[C@](F)(CO)[C@@H](F)[C@H]1O | inactive | inactive | 19 | inactive | 4.7 | inactive | 90 | inactive | inactive | – |
| Nc1ncnc2c1ncn2[C@@H]1O[C@H](CO)C[C@H]1O [CORDYCEPIN] | – | – | 0.19 | – | 70 | – | 13 | – | – | – |
| Nc1ncnc2c1ncn2[C@@H]1O[C@H](CO)[C@@H](F)[C@H]1O | – | – | – | – | – | – | – | – | – | 1.2 |
| CC(C)OC(=O)[C@H](C)N[P@](=O)(OC[C@H]1O[C@@H](n2ccc(=O)[nH]c2=O)[C@](C)(F)[C@@H]1O)Oc1ccccc1 [SOFOSBUVIR] | – | – | > 36 | – | 0.14 | – | > 5 | – | – | – |
| Nc1ccn([C@@H]2O[C@@](F)(CO)[C@H](F)[C@H]2O)c(=O)n1 | – | – | < 0.23 | – | > 100 | – | 23 | – | – | – |
| Nc1ccn([C@@H]2O[C@](F)(CO)[C@H](F)[C@H]2O)c(=O)n1 | – | – | < 0.36 | – | > 100 | – | 36 | – | – | – |
| Nc1ccn([C@@H]2O[C@](F)(CO)[C@@H](F)[C@H]2O)c(=O)n1 | – | – | < 1 | – | > 50 | – | > 50 | – | – | – |

From ChEMBL document CHEMBL3352698, “Synthesis of 3',4'-difluoro-3'-deoxyribonucleosides and its evaluation of the biological activities: discovery of a novel type of anti-HCV agent 3',4'-difluorocordycepin” (Bioorg Med Chem, 2014)
